The structures appear in SMILES notation. Where only a bound is given, the exact number is not on record here.

The first assay has as its target T1, human MCP-1 binding to THP-1 cells (Homo sapiens, UniProt P41597).
T1 construct: endogenous in cells; host or cells: THP-1 (whole cells)
T1 sequence (P41597 1-360 isoform P41597-2): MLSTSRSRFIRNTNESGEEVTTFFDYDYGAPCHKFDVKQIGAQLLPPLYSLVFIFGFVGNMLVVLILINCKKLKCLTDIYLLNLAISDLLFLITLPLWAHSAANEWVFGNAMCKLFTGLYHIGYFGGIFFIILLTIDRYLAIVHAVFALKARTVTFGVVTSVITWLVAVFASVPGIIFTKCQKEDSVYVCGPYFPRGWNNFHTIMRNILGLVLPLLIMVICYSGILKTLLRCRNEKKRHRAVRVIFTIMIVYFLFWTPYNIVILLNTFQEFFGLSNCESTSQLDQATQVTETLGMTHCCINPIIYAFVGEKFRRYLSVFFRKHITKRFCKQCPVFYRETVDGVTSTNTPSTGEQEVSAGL
The assay can be described thus: Inhibitory activity against binding of [125I]-labeled human MCP-1 to THP-1 cells (method 2). As to conditions: concentration of 1 μM. The source says: Two kinds of DNA synthetic primers (5′-[…]-3′ (SEQ ID NO:1) and 5′-[…]-3′) (SEQ ID NO:2) having restriction enzyme recognition sites applied on the basis of the known human MCP-1 gene sequence (see, for example, Yoshimura, T. et al. FEBS Letters 1989, 244, 487-493) were used to amplify a cDNA derived from human vascular endothelial cells (purchased from Kurabow) according to a PCR method. The amplified fragment was cleaved with restriction enzymes (PstI and XbaI) and then ligated into a transfer vector pVL1393 (Invitrogen Co.). The resulting vector was co-transfected with an infectious baculovirus into Sf-9 insect cells. Human MCP-1 gene recombinant baculoviruses were isolated from the obtained supernatant by a plaque assay method.
According to the method of Ishii, K. et al. (see Biochemical and Biophysical Research Communications, 1995, 206, 955-961), 5×10^6 cells of Sf-9 insect cells were infected with 5×10^7 PFU (plaque-forming units) of the above human MCP-1 gene recombinant baculoviruses and cultured in EX-CELL 401 medium for 7 days. The resulting culture supernatant was affinity purified by a heparin-Sepharose column (Pharmacia Co.) and then subjected to reverse phase HPLC (Vydac C18 column) to afford a purified human MCP-1. The protein labeling of the resulting purified human MCP-1 was requested for Amersham Co. to obtain a [^125I]-labeled human MCP-1 expressed with baculovirus (specific activity: 2000 Ci/mmol) prepared by the Bolten Hunter method. The resulting [^125I]-labeled human MCP-1 was used for the following tests.
THP-1 cells which are human monocytic leukemia cell line were suspended in an assay buffer (containing 50 mM of HEPES, 11.0 mM of CaCl2, 5.0 mM of MgCl2 and 0.5% of BSA at pH 7.4) so as to provide 1×10^7 cells/mL to thereby obtain a cell suspension. A solution obtained by diluting the test compound with the assay buffer was used as a test compound solution. A solution prepared by diluting the above [^125I]-labeled human MCP-1 expressed with baculovirus with the assay buffer so as to provide 1 μCi/mL was used as a labeled ligand solution. In a 96-well filter plate (Millipore Co.), were aliquoted 25 μL of the test compound solution, 25 μL of the labeled ligand solution and 50 μL of the cell suspension in the order mentioned for each well. The solutions were stirred (100 μL of the reaction solution) and then incubated at 18° C. for 1 hour.
After completing the reaction, the reaction solution was filtered through a filter, and the filter was washed with 200 μL of cold PBS twice (the reaction solution was filtered after adding 200 μL of the cold PBS). The filter was air-dried, and […] of liquid scintillator was then added by into each well to count the radioactivity retained by the cells on the filter using TopCount (Packard Instrument Co.). The count when 100 ng of the above human MCP-1 expressed with baculovirus(unlabeled) instead of the test compound was added was subtracted as nonspecific adsorption, and the count when the test compound was not added was 100%. Thereby, the inhibitory activity of the test compound against binding of the human MCP-1 to THP-1 cells was calculated. Inhibition ratio (%)={1−(A−B)/(C−B)}×100 (wherein A is the count when the test compound is added; B is the count when 100 ng of the unlabeled human MCP-1 is added; C is the count when only the [^125I]-labeled human MCP-1 is added).
Turning to `Nc1ccc(Cl)cc1C(=O)NCC(=O)N[C@@H]1CCN(Cc2ccc(Cl)cc2)C1` [Compd. No. 1084, (R)-1-(4-chlorobenzyl)-3-[[N-(2-amino-5-chlorobenzoyl)glycyl]amino]pyrrolidine], the inhibition at 1 µM fell in the range of 50 to 80%.
In turn, `Cc1ccc(C(=O)NCC(=O)NCC2CCN(Cc3ccc(Cl)cc3)CC2)cc1Br` [Compd. No. 1113, 4-[[N-(3-bromo-4-methylbenzoyl)glycyl]aminomethyl]-1-(4-chlorobenzyl)piperidine] came in with an inhibition at 1 µM of 50 to 80%.
Compound `COc1ccc(CN2CCC(CNC(=O)CNC(=O)c3cccc(C(F)(F)F)c3)CC2)cc1O` [Compd. No. 1452, 1-[3-hydroxy-4-methoxybenzyl]-4-[[N-(3-(trifluoromethyl)benzoyl)glycyl]aminomethyl]piperidine] showed an inhibition at 1 µM of 20 to 50%.
Still for that read-out and setting: the result for `COCCNC(=O)c1ccc(CN2CCC(CNC(=O)CNC(=O)c3cccc(C(F)(F)F)c3)CC2)cc1` [Compd. No. 1612, 1-[4-[N-(2-methoxyethyl)carbamoyl]benzyl]-4-[[N-(3-(trifluoromethyl)benzoyl)glycyl]aminomethyl]piperidine] reads 20 to 50%.
On the same count and under the same terms, the same measure for `Nc1cc(F)c(F)cc1C(=O)NCC(=O)NCC1CCN(c2ccc3nonc3c2)CC1` [Compd. No. 2130, 4-[[N-(2-amino-4,5-difluorobenzoyl)glycyl]aminomethyl]-1-(benzo[c]furazan-5-yl)piperidine]: 20 to 50%; for `Cc1noc(C)c1N1CCC(CNC(=O)CNC(=O)c2cc(F)c(F)cc2N)CC1` [Compd. No. 2131, 4-[[N-(2-amino-4,5-difluorobenzoyl)glycyl]aminomethyl]-1-(3,5-dimethylisoxazol-4-yl)piperidine]: 20 to 50%.
With `COc1ncc(CN2CC[C@@H](NC(=O)CNC(=O)c3cc(C(F)(F)F)ccc3N)C2)c(OC)n1` [Compd. No. 2175, (R)-3-[[N-(2-amino-5-trifluoromethylbenzoyl)glycyl]amino]-1-(2,4-dimethoxypyrimidin-5-ylmethyl)pyrrolidine], the inhibition at 1 µM lay in the range of 50 to 80%.
On the same count and under the same terms, the same measure for `Nc1ccc(C(F)(F)F)cc1C(=O)NCC(=O)N[C@@H]1CCN(c2ccc3ocnc3c2)C1` [Compd. No. 2189, (R)-3-[[N-(2-amino-5-trifluoromethylbenzoyl)glycyl]amino]-1-(benz[d]oxazol-5-yl)pyrrolidine]: over 80%.

The subject of a further assay is THP-1 cells. The assay can be described thus: Inhibitory activity against cell chemotaxis caused by MCP-1. Type of assay: cell-based. As to conditions: Homo sapiens, MCP-1 20 ng/mL. The source says:
In order to determine the inhibitory activity of the compounds according to the present invention against the cell chemotaxis, human monocytic leukemia cell line THP-1 was used as chemotactic cells according to the method of Fall et al. (J. Immunol. Methods, 1980, 33, 239-247) to determine the cell chemotaxis caused by monocyte chemotactic factor MCP-1 as follows: Namely, 2×10^6 cells/mL of the THP-1 cells [suspended in RPMI-1640 (Flow Laboratories Co.) 10% FCS] were placed in the upper chamber (200 μL) of a 96-well microchemotaxis chamber (Neuroprobe®), and human recombinant MCP-1 (Peprotech Co.) diluted with the same solution so as to provide the final concentration of 20 ng/mL was placed in the lower chamber (35 μL). A polycarbonate filter (PVP-free, Neuroprobe®) was placed between the two chambers. These were incubated in the presence of 5% of CO2 at 37° C. for 2 hours.
The filter was removed, and the cells which had migrated to the undersurface of the filter were immobilized, stained using Diff Quick (Kokusai Shiyaku Co.) and then measured at a measuring wavelength of 550 nm using a plate reader (Molecular Device Co.) to determine the means of 3 wells. Thereby, the indication of the number of cells migrated was obtained. The test compound together with the THP-1 cells was added to the upper chamber at various concentrations to determine the inhibitory activity against cell chemotaxis [degree of inhibition: IC50 (μM)].
`O=C(CNC(=O)c1cccc(C(F)(F)F)c1)NCC1CCN(Cc2ccc(Cl)cc2)CC1` [Compd. No. 461, 1-(4-chlorobenzyl)-4-[[N-[3-(trifluoromethyl)benzoyl]glycyl]aminomethyl]piperidine] returned an IC50 of at most 0.1 µM.
The same measure, in the same setting: the same measure for `Nc1ccc(Br)cc1C(=O)NCC(=O)NCC1CCN(Cc2ccc(Cl)cc2)CC1` [Compd. No. 1042, 4-[N-(2-amino-5-bromobenzoyl)glycyl]aminomethyl-1-(4-chlorobenzyl)piperidine]: at most 0.1 µM; for `Cc1noc(C)c1CN1CC[C@@H](NC(=O)CNC(=O)c2cc(F)cc(C(F)(F)F)c2)C1` [Compd. No. 1191, (R)-3-[N-[3-fluoro-5-(trifluoromethyl)benzoyl]glycyl]amino-1-(3,5-dimethylisoxazol-4-ylmethyl)-pyrrolidine]: at most 0.1 µM; for `C=Cc1ccc(CN2CC[C@@H](NC(=O)CNC(=O)c3cc(C(F)(F)F)ccc3N)C2)cc1` [Compd. No. 1701, (R)-3-[[N-(2-amino-5-(trifluoromethyl)benzoyl)glycyl]amino]-1-(4-vinylbenzyl)pyrrolidine]: at most 0.1 µM.
Consider `COc1ccc(CN2CC[C@@H](NC(=O)CNC(=O)c3cc(OC(F)(F)F)ccc3N)C2)cc1O` [Compd. No. 1896, (R)-3-[[N-(2-amino-5-trifluoromethoxybenzoyl)glycyl]amino]-1-(3-hydroxy-4-methoxybenzyl)pyrrolidine], for which the IC50 is at most 0.1 µM.
In turn, `Nc1cc(Cl)ccc1CN1CCC(CNC(=O)CNC(=O)c2cc(C(F)(F)F)ccc2N)CC1` [Compd. No. 1919, 4-[[N-(2-amino-5-trifluoromethylbenzoyl)glycyl]aminomethyl]-1-(2-amino-4-chlorobenzyl)piperidine] gave an IC50 of at most 0.1 µM.
On the same count and under the same terms, the result for `Nc1cc(Cl)ccc1CN1CC[C@@H](NC(=O)CNC(=O)c2cc(OC(F)(F)F)ccc2N)C1` [Compd. No. 1921, (R)-3-[[N-(2-amino-5-trifluoromethoxybenzoyl)glycyl]amino]-1-(2-amino-4-chlorobenzyl)pyrrolidine] reads at most 0.1 µM.
In turn, `Cc1ccc(CN2CCC(CNC(=O)CNC(=O)c3cc(F)c(F)cc3N)CC2)cc1N` [Compd. No. 2114, 4-[[N-(2-amino-4,5-difluorobenzoyl)glycyl]aminomethyl]-1-(3-amino-4-methylbenzyl)piperidine] returned an IC50 of at most 0.1 µM.
With `Nc1cc(CN2CC[C@@H](NC(=O)CNC(=O)c3cc(C(F)(F)F)ccc3N)C2)ccc1Cl` [Compd. No. 2132, (R)-1-(3-amino-4-chlorobenzyl)-3-[[N-(2-amino-5-trifluoromethylbenzoyl)glycyl]amino]pyrrolidine], the IC50 was at most 0.1 µM.
On the same count and under the same terms, the same measure for `Nc1cc(CN2CCC(CNC(=O)CNC(=O)c3cc(F)c(F)cc3N)CC2)ccc1O` [Compd. No. 2141, 4-[[N-(2-amino-4,5-difluorobenzoyl)glycyl]aminomethyl]-1-(3-amino-4-hydroxybenzyl)piperidine]: at most 0.1 µM.
On the same count and under the same terms, the result for `CNc1cc(CN2CC[C@@H](NC(=O)CNC(=O)c3cc(C(F)(F)F)ccc3N)C2)ccc1O` [Compd. No. 2158, (R)-3-[[N-(2-amino-5-trifluoromethylbenzoyl)glycyl]amino]-1-(3-methylamino-4-hydroxybenzyl)pyrrolidine] reads at most 0.1 µM; that for `Nc1ccc(C(F)(F)F)cc1C(=O)NCC(=O)N[C@@H]1CCN(c2ccc3ocnc3c2)C1` [Compd. No. 2189, (R)-3-[[N-(2-amino-5-trifluoromethylbenzoyl)glycyl]amino]-1-(benz[d]oxazol-5-yl)pyrrolidine], at most 0.1 µM.

Usually inhibition stands for how much of the control response was suppressed. For orientation: IC50 means the concentration that inhibits the measured activity by half. Read a high IC50 as lower potency.

These data come from US7390830B1, “Remedies or prophylactics for diseases in association with chemokines” (Teijin Limited, priority 1999, dated 2008).
